Laboratory results published in patent US20090118274A1, “MONOCYCLIC AMINOPROPYL TETRAHYDRO-PYRAZOLO-PYRIDINE MODULATORS OF CATHEPSIN S” (priority 2007, published 2009).
Where two headings read alike, the source gives them in different places.

Molecular target: T1, Recombinant human cathepsin S (CatS) (Homo sapiens, UniProt P25774)
T1 construct: made in house
Assay: Recombinant human cathepsin S (CatS) fluorogenic substrate inhibition assay
Assay type: biochemical
Experimental: Recombinant human cathepsin S (CatS) was expressed in the baculovirus system and purified in one step with a thiopropyl-sepharose column. […] The assay is run in 150 mM sodium acetate pH 5.0 containing 1.5 mM DTT and 150 mM NaCl. […] Measurements are taken every min for 20 min. The rate is calculated from the slope of the increase in fluorescence and the percent inhibition is calculated from this.

[1] = average of results obtained, substrate Z-Valine-Valine-Arginine-AMC 10 μM, pH 5.0, read-out: CatS IC50

T1 sequence (P25774 115-331): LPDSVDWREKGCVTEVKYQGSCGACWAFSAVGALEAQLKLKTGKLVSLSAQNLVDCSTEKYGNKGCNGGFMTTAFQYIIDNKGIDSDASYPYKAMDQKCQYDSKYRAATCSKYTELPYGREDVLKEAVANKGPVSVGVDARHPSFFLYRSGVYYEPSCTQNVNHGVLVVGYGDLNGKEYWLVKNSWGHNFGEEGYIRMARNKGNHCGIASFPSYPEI

| IC50 [1] [µM] | Structure (SMILES) | IC50 [µM] |
| --- | --- | --- |
| 0.8 | CS(=O)(=O)N1CCc2c(c(-c3ccc(Cl)c(CNC(=O)c4ccccc4)c3)nn2CC(O)CN2CCCCC2)C1 (stereo not shown) [Example 231, N-{2-Chloro-5-[1-(2-hydroxy-3-piperidin-1-yl-propyl)-5-methanesulfonyl-4,5,6,7-tetrahydro-1H-pyrazolo[4,3-c]pyridin-3-yl]-benzyl}-benzamide] |  |
| 0.65 | CS(=O)(=O)N1CCc2c(c(-c3ccc(Cl)c(CNC(=O)c4ccccc4)c3)nn2CC(O)CN2CCOCC2)C1 (stereo not shown) [Example 220, N-{2-Chloro-5-[1-(2-hydroxy-3-morpholin-4-yl-propyl)-5-methanesulfonyl-4,5,6,7-tetrahydro-1H-pyrazolo[4,3-c]pyridin-3-yl]-benzyl}-benzamide] |  |
| 0.15 | CS(=O)(=O)N1CCc2c(c(-c3ccc(C(F)(F)F)c(CNC(=O)c4ccc(F)cc4)c3)nn2CC(O)CN2CCC(C(=O)O)CC2)C1 (stereo not shown) [Example 90, 1-[3-(3-{3-[(4-Fluoro-benzoylamino)-methyl]-4-trifluoromethyl-phenyl}-5-methanesulfonyl-4,5,6,7-tetrahydro-pyrazolo[4,3-c]pyridin-1-yl)-2-hydroxy-propyl]-piperidine-4-carboxylic acid] |  |
| 0.19 | CS(=O)(=O)N1CCc2c(c(-c3ccc(Cl)c(CNC(=O)c4ccc(F)cc4)c3)nn2CC(O)CN2CCC(F)CC2)C1 (stereo not shown) [Example 82, N-(2-Chloro-5-{1-[3-(4-fluoro-piperidin-1-yl)-2-hydroxy-propyl]-5-methanesulfonyl-4,5,6,7-tetrahydro-1H-pyrazolo[4,3-c]pyridin-3-yl}-benzyl)-4-fluoro-benzamide] |  |
| 0.09 | CS(=O)(=O)N1CCc2c(c(-c3ccc(C(F)(F)F)c(CNC(=O)c4ccc(F)cc4)c3)nn2CCCN2CCC(O)C2)C1 (stereo not shown) [Example 40, 4-Fluoro-N-(5-{1-[3-(3-hydroxy-pyrrolidin-1-yl)-propyl]-5-methanesulfonyl-4,5,6,7-tetrahydro-1H-pyrazolo[4,3-c]pyridin-3-yl}-2-trifluoromethyl-benzyl)-benzamide] |  |

The remaining lines, values behind:

| Structure (SMILES) | IC50 [1] [µM] | IC50 [µM] |
| --- | --- | --- |
| CS(=O)(=O)N1CCc2c(c(-c3ccc(C(F)(F)F)c(CNC(=O)c4ccccc4)c3)nn2CC(O)CN2CCC3(CCNC3=O)CC2)C1 (stereo not shown) [Example 145, N-(5-{1-[2-Hydroxy-3-(1-oxo-2,8-diaza-spiro[4.5]dec-8-yl)-propyl]-5-methanesulfonyl-4,5,6,7-tetrahydro-1H-pyrazolo[4,3-c]pyridin-3-yl}-2-trifluoromethyl-benzyl)-benzamide] | 0.13 |  |
| CS(=O)(=O)N1CCc2c(c(-c3ccc(C(F)(F)F)c(CNC(=O)Oc4ccccc4)c3)nn2CC(O)CN2CCC3(CCNC3=O)CC2)C1 (stereo not shown) [Example 149, (5-{1-[2-Hydroxy-3-(1-oxo-2,8-diaza-spiro[4.5]dec-8-yl)-propyl]-5-methanesulfonyl-4,5,6,7-tetrahydro-1H-pyrazolo[4,3-c]pyridin-3-yl}-2-trifluoromethyl-benzyl)-carbamic acid phenyl ester] |  | 0.22 |
| CS(=O)(=O)N1CCc2c(c(-c3ccc(C(F)(F)F)c(C(=O)Nc4ccccc4)c3)nn2CC(O)CN2CCCC2)C1 (stereo not shown) [Example 192, 5-[1-(2-Hydroxy-3-pyrrolidin-1-yl-propyl)-5-methanesulfonyl-4,5,6,7-tetrahydro-1H-pyrazolo[4,3-c]pyridin-3-yl]-N-phenyl-2-trifluoromethyl-benzamide] | 1.6 |  |
| CC(C)CC(=O)NCc1cc(-c2nn(CC(O)CN3CCC(O)CC3)c3c2CN(S(C)(=O)=O)CC3)ccc1C(F)(F)F (stereo not shown) [Example 245, N-(5-{1-[2-Hydroxy-3-(4-hydroxy-piperidin-1-yl)-propyl]-5-methanesulfonyl-4,5,6,7-tetrahydro-1H-pyrazolo[4,3-c]pyridin-3-yl}-2-trifluoromethyl-benzyl)-3-methyl-butyramide] | 0.27 |  |
| CS(=O)(=O)N1CCc2c(c(-c3ccc(C(F)(F)F)c(CNC(=O)Oc4ccc(F)cc4)c3)nn2CC(O)CN2CCCC2)C1 (stereo not shown) [Example 213, {5-[1-(2-Hydroxy-3-pyrrolidin-1-yl-propyl)-5-methanesulfonyl-4,5,6,7-tetrahydro-1H-pyrazolo[4,3-c]pyridin-3-yl]-2-trifluoromethyl-benzyl}-carbamic acid 4-fluoro-phenyl ester] |  | 0.56 |
